Results reported in paper PMC11114116 (Molecular Pharmacology, 2024).
Read-outs that look alike come from different tables or passages of the source.

Key:
[1] = target: T1, human FABP1 (hFABP1) (Homo sapiens, UniProt P07148); assay: DAUDA displacement assay for hFABP1 binding; conditions: for Fres (% Fluorescence Remaining): residual DAUDA-FABP1 fluorescence at saturating ligand (Min of eq. 7); for Maximum decrease of DAUDA-FABP1 fluorescence at saturation: 0.3 μM FABP1, 0.5 μM DAUDA
T1 sequence (P07148 1-127): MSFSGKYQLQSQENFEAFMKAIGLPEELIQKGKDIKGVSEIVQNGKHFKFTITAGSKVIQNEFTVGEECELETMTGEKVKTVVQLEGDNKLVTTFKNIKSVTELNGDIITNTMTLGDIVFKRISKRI

[2] = system: FABP2; conditions: ref Patil et al., 2014; cited from earlier work
[3] = target: CYP2C9 (Homo sapiens, UniProt P11712); format: in vitro ADME
Chain of CYP2C9 (P11712 whole entry): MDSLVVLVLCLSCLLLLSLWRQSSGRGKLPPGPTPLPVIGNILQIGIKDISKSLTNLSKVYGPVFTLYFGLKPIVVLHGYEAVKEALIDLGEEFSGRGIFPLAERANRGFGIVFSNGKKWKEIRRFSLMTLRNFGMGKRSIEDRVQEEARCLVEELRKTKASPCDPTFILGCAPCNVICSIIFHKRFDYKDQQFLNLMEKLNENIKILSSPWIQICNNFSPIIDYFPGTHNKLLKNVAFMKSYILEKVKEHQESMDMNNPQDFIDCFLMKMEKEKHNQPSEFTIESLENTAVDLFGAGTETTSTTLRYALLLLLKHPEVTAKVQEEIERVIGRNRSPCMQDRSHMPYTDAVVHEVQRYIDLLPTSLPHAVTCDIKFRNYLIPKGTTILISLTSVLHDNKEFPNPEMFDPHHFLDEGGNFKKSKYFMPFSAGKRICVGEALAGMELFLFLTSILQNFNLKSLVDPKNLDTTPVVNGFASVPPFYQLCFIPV

Row | SMILES | EC50 [1] | Fres (% Fluorescence Remaining) [1] | also measured
1 | CCCCC/C=C\C/C=C\C/C=C\C/C=C\CCCC(=O)O [Arachidonic Acid, arachidonic acid] | 0.42 ± 0.11 µM | 2.2 ± 3.6% | 
2 | CNCCC(Oc1ccc(C(F)(F)F)cc1)c1ccccc1 (centres unmarked) [fluoxetine] |  |  | Decrease of DAUDA fluorescence in initial screen ([1]; drug at 30 μM, 0.3 μM FABP1 prebound with 0.5 μM DAUDA): All of the drugs tested except fluoxetine decreased DAUDA fluorescence
3 | CC(C(=O)O)c1ccc(-c2ccccc2)c(F)c1 (centres unmarked) [flurbiprofen] |  |  | Kd [1]: 2 to 10 µM
4 | O=C(c1ccccc1)c1ccc2n1CCC2C(=O)O (centres unmarked) [Ketorolac, ketorolac] |  |  | Displacement of fluorescent probe ANS from FABP2 [2]: did not displace
5 | CC(C)Cc1ccc(C(C)C(=O)O)cc1 (centres unmarked) [Ibuprofen, ibuprofen] |  | 28 ± 4.9% | 
6 | CCc1ccc(CCOc2ccc(CC3SC(=O)NC3=O)cc2)nc1 (centres unmarked) [Pioglitazone, pioglitazone] |  | 5.2 ± 2.4% | Maximum decrease of DAUDA-FABP1 fluorescence at saturation [1]: > 82%
7 | Cc1ccc(C)c(OCCCC(C)(C)C(=O)O)c1 [Gemfibrozil, gemfibrozil] | 5.6 ± 1.7 µM | 18 ± 2.8% | Maximum decrease of DAUDA-FABP1 fluorescence at saturation [1]: > 82%

The next lines start with results.

Row | EC50 [1] | Fres (% Fluorescence Remaining) [1] | SMILES | also measured
8 |  | 40 ± 1.6% | C[C@@H](C(=O)O)c1ccc(-c2ccccc2)c(F)c1 [R-Flurbiprofen, (R)-flurbiprofen] | 
9 | > 40 µM |  | CCCCNC(=O)NS(=O)(=O)c1ccc(C)cc1 [Tolbutamide, tolbutamide] | 
10 |  | 48 ± 1.1% | C[C@H](C(=O)O)c1ccc(-c2ccccc2)c(F)c1 [S-Flurbiprofen, (S)-flurbiprofen] | 
11 | > 40 µM |  | Nc1ccc(S(=O)(=O)Nc2ccnn2-c2ccccc2)cc1 [Sulfaphenazole, sulfaphenazole] | 
12 |  | 15 ± 3.0% | O=C(O)Cc1ccccc1Nc1c(Cl)cccc1Cl [Diclofenac, diclofenac] | Maximum decrease of DAUDA-FABP1 fluorescence at saturation [1]: > 82%; Maximum decrease of DAUDA-FABP1 fluorescence at saturation ([1]; listed as diclofenac): ~85%; Km at 10 min ([3]; CYP2C9 Supersomes (recombinant CYP2C9) with 20 μM hFABP1, pH 7.4, Km,apparent for 4'-OH-diclofenac formation, +FABP1, nominal diclofenac concentrations, 20 μM hFABP1, 1 nM CYP2C9 Supersomes): 5.8 ± 1.5 µM; Km at 10 min ([3]; CYP2C9 Supersomes (recombinant CYP2C9), without hFABP1, pH 7.4, Km,apparent for 4'-OH-diclofenac formation, −FABP1, nominal diclofenac concentrations, absence of FABP1, 1 nM CYP2C9 Supersomes): 1.4 ± 0.2 µM
